Data: ChEMBL document CHEMBL1201862, “PubChem BioAssay data set” (2004)
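Each compound was tested at five concentrations against cells in 96-well plates for 48 hours. Here, GI50 denotes the concentration required for 50% inhibition of growth.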 Calls of active or inactive are those of the source. Cut-off read from the data, not from the text of the source: active = GI50 up to about 1.1 µM and inactive = higher.

How the values were obtained:
Experiment in all cases: DTP human tumour cell line panel, 48 h
[1] = system: HCC 2998
[2] = system: K562
[3] = system: HCT-15
[4] = system: MCF7
[5] = system: SK-MEL-28
[6] = system: ACHN
[7] = system: OVCAR-8
[8] = system: HOP-62
[9] = system: RXF 393
[10] = system: CCRF-CEM
[11] = system: OVCAR-5
[12] = system: SK-MEL-5
[13] = system: MDA-MB-435
[14] = system: EKVX
[15] = system: NCI-H23
[16] = system: A498
[17] = system: SF-268
[18] = system: SF-295
[19] = system: HL-60
[20] = system: OVCAR-3
[21] = system: UACC-62
[22] = system: U-251
[23] = system: HT-29
[24] = system: HCT-116
[25] = system: Malme-3M
[26] = system: SN12C
[27] = system: NCI/ADR-RES
[28] = system: BT-549
[29] = system: SNB-75
[30] = system: NCI-H226
[31] = system: COLO 205
[32] = system: 786-0
[33] = system: PC-3
[34] = system: Hs-578T
[35] = system: SNB-19
[36] = system: IGROV-1
[37] = system: SR
[38] = system: UO-31
[39] = system: SF-539
[40] = system: TK-10
[41] = system: UACC-257
[42] = system: NCI-H460
[43] = system: KM12
[44] = system: HOP-92
[45] = system: MDA-N
[46] = system: RPMI-8226
[47] = system: SW-620
[48] = system: SK-OV-3
[49] = system: DU-145
[50] = system: A549
[51] = system: MOLT-4
[52] = system: M14
[53] = system: CAKI-1
[54] = system: T47D
[55] = system: LOX IMVI
[56] = system: NCI-H522
[57] = system: OVCAR-4
[58] = system: SK-MEL-2
[59] = system: MDA-MB-231

With `CCOC(=O)c1csc(-c2nc(CCNC(=O)c3ccccc3)sc2Cl)n1` the GI50 [1] was > 100 µM (inactive), the GI50 [2] was 37.1 µM (inactive) and the GI50 [3] was 51.3 µM. The GI50 [4] was 67.6 µM (inactive), the GI50 [5] was 56.6 µM (inactive) and the GI50 [6] was > 100 µM (inactive). For the same compound, the GI50 [7] was 45 µM (inactive), the GI50 [8] was 55.7 µM (inactive) and the GI50 [9] was > 100 µM (inactive). For the same compound, the GI50 [10] was 30.5 µM (inactive), the GI50 [11] was > 100 µM (inactive) and the GI50 [12] was 42.7 µM (inactive). For the same compound, the GI50 [13] was 62.7 µM (inactive), the GI50 [14] was > 100 µM (inactive) and the GI50 [15] was 40.9 µM (inactive). For the same compound, the GI50 [16] was 15.4 µM (inactive), the GI50 [17] was 60 µM (inactive) and the GI50 [18] was > 100 µM (inactive). For the same compound, the GI50 [19] was 41.5 µM (inactive), the GI50 [20] was 45.8 µM (inactive) and the GI50 [21] was 59.3 µM (inactive). The GI50 [22] was 73.8 µM (inactive), the GI50 [23] was > 100 µM (inactive) and the GI50 [24] was 47 µM (inactive). The GI50 [25] was > 100 µM (inactive), the GI50 [26] was > 100 µM (inactive) and the GI50 [27] was 41.1 µM (inactive). The GI50 [28] was 32.7 µM (inactive), the GI50 [29] was 49.4 µM (inactive) and the GI50 [30] was > 100 µM (inactive). For the same compound, the GI50 [31] was 77.3 µM (inactive), the GI50 [32] was > 100 µM (inactive) and the GI50 [33] was 32.1 µM (inactive). The GI50 [34] was > 100 µM (inactive), the GI50 [35] was > 100 µM (inactive) and the GI50 [36] was > 100 µM (inactive). The GI50 [37] was 37.1 µM (inactive), the GI50 [38] was 61.2 µM (inactive) and the GI50 [39] was > 100 µM (inactive). For the same compound, the GI50 [40] was > 100 µM (inactive), the GI50 [41] was > 100 µM (inactive) and the GI50 [42] was 34.4 µM (inactive). For the same compound, the GI50 [43] was 69.2 µM (inactive), the GI50 [44] was 5.74 µM (inactive) and the GI50 [45] was > 100 µM (inactive). The GI50 [46] was 44 µM (inactive), the GI50 [47] was > 100 µM (inactive) and the GI50 [48] was > 100 µM (inactive). For the same compound, the GI50 [49] was > 100 µM (inactive), the GI50 [50] was > 100 µM (inactive) and the GI50 [51] was 34.3 µM (inactive). The GI50 [52] was 58.5 µM (inactive).
For `CC1CC(C)(C)CC(OCCN2CCCCC2)(c2ccccc2)C1` (stereo not drawn), the GI50 [2] was 13 µM (inactive), the GI50 [3] was 10.2 µM and the GI50 [4] was 11.2 µM (inactive). The GI50 [5] was 15.7 µM (inactive), the GI50 [6] was 15.9 µM (inactive) and the GI50 [53] was 12.7 µM (inactive). For the same compound, the GI50 [7] was 15.2 µM (inactive), the GI50 [8] was 13.2 µM (inactive) and the GI50 [9] was 10.9 µM (inactive). The GI50 [10] was 6.5 µM (inactive), the GI50 [11] was 4.19 µM (inactive) and the GI50 [12] was 10 µM (inactive). For the same compound, the GI50 [54] was 12.9 µM (inactive), the GI50 [55] was 7.13 µM (inactive) and the GI50 [13] was 11.9 µM (inactive). For the same compound, the GI50 [14] was 5.51 µM (inactive), the GI50 [15] was 10.3 µM (inactive) and the GI50 [56] was 5.87 µM (inactive). The GI50 [16] was 12.8 µM (inactive), the GI50 [57] was 11.3 µM (inactive) and the GI50 [17] was 10.8 µM (inactive). For the same compound, the GI50 [18] was 10.7 µM (inactive), the GI50 [19] was 11.4 µM (inactive) and the GI50 [20] was 10.4 µM (inactive). The GI50 [21] was 15.6 µM (inactive), the GI50 [22] was 11.6 µM (inactive) and the GI50 [58] was 17.8 µM (inactive). For the same compound, the GI50 [23] was 1.89 µM (inactive), the GI50 [24] was 4.4 µM (inactive) and the GI50 [25] was 10.4 µM (inactive). The GI50 [26] was 12 µM (inactive), the GI50 [27] was 14.4 µM (inactive) and the GI50 [28] was 12.7 µM (inactive). For the same compound, the GI50 [29] was 15.1 µM (inactive), the GI50 [30] was 20.7 µM (inactive) and the GI50 [31] was 7.71 µM (inactive). The GI50 [32] was 10.1 µM (inactive), the GI50 [33] was 12.2 µM (inactive) and the GI50 [59] was 11.4 µM (inactive). The GI50 [34] was 13.3 µM (inactive), the GI50 [35] was 12.9 µM (inactive) and the GI50 [36] was 13.2 µM (inactive). For the same compound, the GI50 [37] was 4.97 µM (inactive), the GI50 [38] was 7.16 µM (inactive) and the GI50 [39] was 15.6 µM (inactive). The GI50 [40] was 13.3 µM (inactive), the GI50 [41] was 11.6 µM (inactive) and the GI50 [42] was 4.21 µM (inactive). The GI50 [43] was 7.35 µM (inactive), the GI50 [44] was 8.17 µM (inactive) and the GI50 [46] was 4.51 µM (inactive). The GI50 [47] was 13.9 µM (inactive), the GI50 [48] was 14.7 µM (inactive) and the GI50 [49] was 6.61 µM (inactive). For the same compound, the GI50 [50] was 11 µM (inactive) and the GI50 [52] was 3.21 µM (inactive).
